Experimental data published in patent US8846757B2, “Bioactive depside and anthocyanin compounds, compositions, and methods of use” (The Trustees of Columbia University in the City of New York, priority 2006, dated 2014).
Read-outs that look alike come from different tables or passages of the source. Each block holds one compound with its values, some of them ahead of it.

What was measured:
[1] = tested on: IL-8 production in human small airway epithelial (SAE) cells; assay: IL-8 immunoassay (ELISA) in SAE cells; type: cell-based; conditions: compound 100 μM, 24 hours; for inhibition at 100 µM: Homo sapiens
Method: Human SAE cells were cultured according to supplier instructions (Clonetics, CA) and maintained in a controlled atmosphere of air-5% CO2 at 37° C. Confluent SAE cells at passages 4-8 were used for experiments.
Cigarette smoke extract (CSE) was prepared using a modified protocol (24). Briefly, a Barnet vacuum pump operating at constant flow was used to draw the smoke of one unfiltered 2R1 reference cigarette (University of Kentucky) through 25 mL of Dulbecco's phosphate-buffered saline. This solution (100% CSE) was adjusted to pH 7.4, filtered, diluted with small airway growth medium to a final concentration of 5%, and added to the cells immediately.
Cells were treated with 5% CSE or pure compounds (100 μM), or pretreated with pure compounds 30 minutes prior to 5% CSE exposure. After 24 hours measurement of human IL-8 in cell culture supemates was performed by ELISA (R&D Systems Inc., MN). Statistical analyses were performed by Student's t-test (two-sided) using the JMP Statistics software package (SAS Institute Inc., NC) and defined at the 5% level.

[2] = tested on: HT29 colon cancer cells; assay: Cytotoxicity assay, HT29; conditions: read-out: Cytotoxicity IC50 HT29
Method: (§1) Colon cancer cell lines HT29, HCT116, and SW480 (10,000 cells) were plated into 24-well plates in Dulbecco's modified Eagle medium (DMEM) containing 10% fetal bovine serum (FBS). […] The plates were washed with PBS once and the attached cells were collected by tripsinization.

[3] = DPPH assay (antiradical activity); conditions: 400 μM DPPH
Method: The DPPH assay was performed on extracts, fractions, and purified compounds as previously described, using 400 μM DPPH (9).
The DPPH assay is an indication of the ability of a substance to scavenge free radicals. Gallic acid is know to be an effective free radical scavenger.

[4] = tested on: HCT116 colon cancer cells; assay: Cytotoxicity assay, HCT116; conditions: read-out: Cytotoxicity IC50 HCT116
Method: as §1

[5] = tested on: HT29 colon cancer cells
Method: as §1

[6] = tested on: HCT116 colon cancer cells
Method: as §1

[7] = tested on: SW480 colon cancer cells; assay: Cytotoxicity assay, SW480; type: cell-based; conditions: 72 hours, cell count
Method: as §1

[8] = tested on: HT29 colon cancer cells; conditions: positive controls, refs (8, 19); cited from earlier work
[9] = pretreated 30 minutes prior to 5% CSE

IC50 [3]: 51.4 µM
Compound: COC(=O)Cc1c(O)cc(O)cc1OC(=O)c1ccc(O)c(O)c1 [Compound 1, methyl 2-[(3,4-dihydroxybenzoyloxy)-4,6-dihydroxyphenyl]acetate]
inhibition at 100 µM ([1]; no CSE, read-out: IL-8 inhibition in SAE cells, Untreated): 81.3%
inhibition at 100 µM ([1]; pretreated 30 minutes prior to 5% CSE, read-out: IL-8 inhibition in SAE cells, Treated with 5% CSE): 47.3%
IC50 ([2]; Homo sapiens, HT-29, 72 h): 65 µM
IC50 ([4]; Homo sapiens, HCT-116, 72 h): > 100 µM

IC50 [5]: > 100 µM
IC50 [3]: 61.8 µM
IC50 [6]: 30 µM
Compound: O=C(O)Cc1c(O)cc(O)cc1OC(=O)c1ccc(O)c(O)c1 [Compound 2, 2-O-(3,4-dihydroxybenzoyl)-2,4,6-trihydroxyphenylacetic acid]
IL-8 inhibition in SAE cells, Untreated ([1]; no CSE): 74.9%
IL-8 inhibition in SAE cells, Treated with 5% CSE [1, 9]: 70.3%

Compound: OC[C@H]1O[C@@H](Oc2cc3c(O)cc(O)cc3[o+]c2-c2ccc(O)c(O)c2)[C@H](O)[C@@H](O)[C@@H]1O [Compound 3, cyanidin 3-glucoside]
IC50 [7]: 90 to 100 µM
IL-8 inhibition in SAE cells, Untreated ([1]; no CSE): 65.3%
IL-8 inhibition in SAE cells, Treated with 5% CSE [1, 9]: 36.4%
IC50 ([2]; 72 hours, cell count): ~100 µM
IC50 [3]: 28.4 µM
IC50 ([4]; 72 hours, cell count): ~70 µM

Compound: OC[C@H]1O[C@@H](Oc2cc3c(O)cc(O)cc3[o+]c2-c2cc(O)c(O)c(O)c2)[C@H](O)[C@@H](O)[C@@H]1O [Compound 4, delphinidin 3-glucoside]
IC50 [7]: 20 µM
IL-8 inhibition in SAE cells, Untreated ([1]; no CSE, 100 µM): Not Detected
IL-8 inhibition in SAE cells, Treated with 5% CSE [1, 9]: 96.0%
IC50 ([2]; 72 hours, cell count): ~100 µM
IC50 [3]: 26.3 µM
IC50 ([4]; 72 hours, cell count): 12 µM

Compound: O=c1[nH]cc(F)c(=O)[nH]1 [Compound 5-FU, 5-fluorouracil, reference compound]
IC50 ([7]; Homo sapiens, SW480): 53 µM
IC50 ([2]; Homo sapiens, HT-29, 72 h): 46.1 µM
IC50 ([4]; Homo sapiens, HCT-116, 72 h): 45.1 µM

Compound: O=C(O[C@@H]1Cc2c(O)cc(O)cc2O[C@@H]1c1cc(O)c(O)c(O)c1)c1cc(O)c(O)c(O)c1 [EGCG, epigallocatechin gallate]
HT29 IC50 [8]: 27 µg/mL

IC50 [3]: 30 ± 2.9 µM
Compound: O=C(O)c1cc(O)c(O)c(O)c1 [Gallic acid, gallic acid, reference compound]

Compound: catechin [reference compound]
IL-8 inhibition in SAE cells, Untreated ([1]; no CSE): No Change
IL-8 inhibition in SAE cells, Treated with 5% CSE [1, 9]: 60.3%
